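The compound was tested at five concentrations on cells cultured in 96-well plates, with a 48-hour exposure period. GI50: concentration for 50% inhibition of growth.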 Active and inactive are the calls of the source. Rule as the data show it: active = GI50 up to about 1.1 µM and inactive = higher.
What was measured:
Test in all cases: growth of human tumour cells (NCI), 48 h
[1] = test system: A549
[2] = test system: ACHN
[3] = test system: CCRF-CEM
[4] = test system: DMS-273
[5] = test system: EKVX
[6] = test system: HCC 2998
[7] = test system: HT-29
[8] = test system: KM12
[9] = test system: NCI-H522
[10] = test system: OVCAR-4
[11] = test system: SK-MEL-5
[12] = test system: SK-OV-3
[13] = test system: SN12C
[14] = test system: SNB-19
[15] = test system: SR
[16] = test system: HOP-92
[17] = test system: OVCAR-3
[18] = test system: SK-MEL-2
[19] = test system: MDA-N
[20] = test system: PC-3

SMILES: CCCCOC(=O)CNC(=O)OCCCCC#CC#CCCCCOC(=O)NCC(=O)OCCCC
- GI50 [1]: > 100 µM (inactive)
- GI50 [2]: > 100 µM (inactive)
- GI50 [3]: > 100 µM (inactive)
- GI50 [4]: > 100 µM (inactive)
- GI50 [5]: > 100 µM (inactive)
- GI50 [6]: > 100 µM (inactive)
- GI50 [7]: > 100 µM (inactive)
- GI50 [8]: > 100 µM (inactive)
- GI50 [9]: 76.7 µM (inactive)
- GI50 [10]: > 100 µM (inactive)
- GI50 [11]: > 100 µM (inactive)
- GI50 [12]: > 100 µM (inactive)
- GI50 [13]: > 100 µM (inactive)
- GI50 [14]: > 100 µM (inactive)
- GI50 [15]: > 100 µM (inactive)

SMILES: Cn1cc(NC(=O)c2cc(NC(=O)CCCCCCCCCC(=O)Nc3cc(C(=O)Nc4cc(C(=O)NCCC(=N)N)n(C)c4)n(C)c3)cn2C)cc1C(=O)NCCC(=N)N
- GI50 [1]: 18.7 µM (inactive)
- GI50 [2]: 23.5 µM (inactive)
- GI50 [3]: 22.6 µM (inactive)
- GI50 [4]: 33.2 µM (inactive)
- GI50 [5]: 28.6 µM (inactive)
- GI50 [16]: 16.4 µM (inactive)
- GI50 [7]: 20.7 µM (inactive)
- GI50 [8]: 13.1 µM (inactive)
- GI50 [9]: 11 µM (inactive)
- GI50 [17]: 19.2 µM (inactive)
- GI50 [10]: 34.8 µM (inactive)
- GI50 [18]: 29.3 µM (inactive)
- GI50 [11]: 14.7 µM (inactive)
- GI50 [12]: 92 µM (inactive)
- GI50 [13]: 32.2 µM (inactive)
- GI50 [14]: 30.8 µM (inactive)

SMILES: O=C(CC(=O)C1CCOC1=O)C(=O)Nc1ccc(Cl)cc1Cl (stereo not given)
- GI50 [1]: > 100 µM (inactive)
- GI50 [2]: > 100 µM (inactive)
- GI50 [3]: > 100 µM (inactive)
- GI50 [4]: > 100 µM (inactive)
- GI50 [5]: > 100 µM (inactive)
- GI50 [6]: > 100 µM (inactive)
- GI50 [16]: > 100 µM (inactive)
- GI50 [7]: > 100 µM (inactive)
- GI50 [8]: > 100 µM (inactive)
- GI50 [9]: > 100 µM (inactive)
- GI50 [17]: > 100 µM (inactive)
- GI50 [10]: > 100 µM (inactive)
- GI50 [18]: > 100 µM (inactive)
- GI50 [11]: > 100 µM (inactive)
- GI50 [12]: > 100 µM (inactive)
- GI50 [13]: > 100 µM (inactive)
- GI50 [14]: > 100 µM (inactive)

SMILES: Brc1ccccc1/C=C\C1(c2ccccc2)OCCO1
- GI50 [1]: 16 µM (inactive)
- GI50 [2]: 8.51 µM (inactive)
- GI50 [3]: 3.03 µM (inactive)
- GI50 [5]: 15.8 µM (inactive)
- GI50 [6]: 15.7 µM (inactive)
- GI50 [16]: 23.3 µM (inactive)
- GI50 [7]: 7.01 µM (inactive)
- GI50 [8]: 2.34 µM (inactive)
- GI50 [19]: 12.3 µM (inactive)
- GI50 [9]: 8.11 µM (inactive)
- GI50 [17]: 12.7 µM (inactive)
- GI50 [10]: 4.26 µM (inactive)
- GI50 [20]: 17.9 µM (inactive)
- GI50 [18]: 23 µM (inactive)
- GI50 [11]: 15.2 µM (inactive)
- GI50 [12]: 13.6 µM (inactive)
- GI50 [13]: 14.1 µM (inactive)
- GI50 [14]: 15 µM (inactive)
- GI50 [15]: 0.692 µM (active)

SMILES: CCCNCCCC(NC(C)=O)C(=O)NCc1ccccc1 (stereo not given)
- GI50 [1]: > 100 µM (inactive)
- GI50 [2]: > 100 µM (inactive)
- GI50 [3]: > 100 µM (inactive)
- GI50 [4]: > 100 µM (inactive)
- GI50 [5]: > 100 µM (inactive)
- GI50 [6]: > 100 µM (inactive)
- GI50 [16]: > 100 µM (inactive)
- GI50 [7]: > 100 µM (inactive)
- GI50 [8]: > 100 µM (inactive)
- GI50 [9]: > 100 µM (inactive)
- GI50 [17]: > 100 µM (inactive)
- GI50 [10]: > 100 µM (inactive)
- GI50 [18]: > 100 µM (inactive)
- GI50 [11]: > 100 µM (inactive)
- GI50 [12]: > 100 µM (inactive)
- GI50 [13]: > 100 µM (inactive)
- GI50 [14]: > 100 µM (inactive)

SMILES: C#Cc1cc(CN(CC(=O)OC(C)(C)C)CC(=O)OC(C)(C)C)nc(CN(CC(=O)OC(C)(C)C)CC(=O)OC(C)(C)C)c1
- GI50 [1]: 7.85 µM (inactive)
- GI50 [2]: 4.84 µM (inactive)
- GI50 [3]: 2.96 µM (inactive)
- GI50 [4]: 5.89 µM (inactive)
- GI50 [5]: 11.9 µM (inactive)
- GI50 [6]: 4.31 µM (inactive)
- GI50 [7]: 4.4 µM (inactive)
- GI50 [8]: 3.72 µM (inactive)
- GI50 [9]: 2.01 µM (inactive)
- GI50 [17]: 3.04 µM (inactive)
- GI50 [10]: 6.19 µM (inactive)
- GI50 [18]: 2.28 µM (inactive)
- GI50 [11]: 3.59 µM (inactive)
- GI50 [12]: 6.55 µM (inactive)
- GI50 [13]: 6.75 µM (inactive)
- GI50 [14]: 2.74 µM (inactive)

Reference: ChEMBL document CHEMBL1201862, “PubChem BioAssay data set” (2004)
